Reference: patent US20210261636A1, “NEOANTIGENS EXPRESSED IN MULTIPLE MYELOMA AND THEIR USES” (Janssen Biotech, Inc., priority 2020, published 2021)

What was measured:
[1] = tested on: CD4+ T cells; assay: Exogenous autologous healthy donor restimulation assay, TNFα and IFNγ production by CD4+ T cells; format: cell-based, human; set-up: Frequency (TNFα+ IFNγ+ CD4 T cells): unit not given here; conditions: donor independent, peptide pool 10 μg/mL, healthy donors; for Fold change (CD4+) vs. DMSO: maximum CD4+ T-cell response (TNFα and IFNγ); for Frequency (TNFα+ IFNγ+ CD4 T cells): maximum CD4+ T-cell response
Outline: (§1)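 CD1c+ DCs from healthy donor PBMCs pulsed 2 h with 15-mer overlapping neoantigen peptide pools (10 μg/mL), irradiated 50 Gy, then co-cultured 12 days with autologous CD3+ T cells plus IL-15/IL-2. Restimulated day 11 with same pools, overnight with protein inhibitor; intracellular TNFα/IFNγ by flow. Positive: ≥3-fold over DMSO and ≥0.01% double-positive.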

[2] = tested on: CD8+ T cells; assay: Exogenous autologous healthy donor restimulation assay, TNFα and IFNγ production by CD8+ T cells; format: cell-based, human; set-up: Frequency (TNFα+ IFNγ+ CD8 T cells): unit not given here; conditions: for Fold change (CD8+) vs. DMSO: maximum CD8+ T-cell response (TNFα and IFNγ); for Fold change (CD8+) vs. DMSO / Frequency (TNFα+ IFNγ+ CD8 T cells): donor independent, peptide pool 10 μg/mL, healthy donors; for Frequency (TNFα+ IFNγ+ CD8 T cells): maximum CD8+ T-cell response; for Immunogenic (yes/no): positive if CD8+ and/or CD4+ double positive TNFα/IFNγ frequency >=3-fold over DMSO and at least 0.01%
Outline: as §1

| Sequence | Fold change (CD4+) vs. DMSO [1] | Frequency (TNFα+ IFNγ+ CD4 T cells) [1] | Fold change (CD8+) vs. DMSO [2] | Frequency (TNFα+ IFNγ+ CD8 T cells) [2] | Immunogenic (yes/no) [2] |
| --- | --- | --- | --- | --- | --- |
| NAVRSYYETNGGMSFLRITP [FUS19, gene fusion CADPS2-> RNF148] | 1.26 | 0.009 | 12.96 | 0.016 | Yes |
| NRVTALTQN [FUS35, gene fusion TMED3-> KIAA1024] | 2.28 | 0.019 | 3.24 | 0.049 | Yes |
| PKVFPKNQVISLIPKAQEDPEHT [AS127, alternative splicing, ST3GAL6] | 7.179 | 0.14 | 1.44 | 0.08 | Yes |
| PPGGHSPQDLSIREIFCLGHKEVC [AS136, alternative splicing, ZNF592] | 10.86 | 0.07 | 5.91 | 0.072 | Yes |
| PPLITNVTEKPWKHTRIEMPLARLTRP [FUS51, gene fusion POU2AF1-> COLCA1] | 11.93 | 0.061 | 200 | 0.06 | Yes |
| PPTAAASQTCLELER [FUS21, gene fusion FOSB-> KLF6] | 8.08 | 0.023 | 4.24 | 0.04 | Yes |
| PPTAAASQTMQIFVKT [FUS31, gene fusion FOSB-> UBC] | 0.7 | 0.004 | 14.72 | 0.022 | Yes |
| PQEEVPFRSITTELFPSMC [FUS27, gene fusion TBCEL-> TECTA] | 3.3 | 0.038 | 3.38 | 0.009 | Yes |
| PRDNHTDHENPRGSDGQGRWKCPSQVTYIRRTLM [FUS16, gene fusion UBE2J1-> GABRR2] | 4.388 | 0.027 | 8.86 | 0.12 | Yes |
| PVILFKGKVRPIP [AS67, alternative splicing, MTMR14] | 8.57 | 0.071 | 28.23 | 0.52 | Yes |
| QIIYDENRTMQIFVKT [FUS28, gene fusion NCOR2-> UBC] | 1.13 | 0.009 | 247.49 | 0.37 | Yes |
| QILEQPKQVRLKGWDFKC [AS68, alternative splicing, NFKB1] | 21.77 | 0.033 | 4 | 0.022 | Yes |
| QILQQALKIAFLKVVVPLKLHPYSFCH [AS132, alternative splicing, USP25] | 181.82 | 0.17 | 4.73 | 0.026 | Yes |
| QILQQALKKLPFSLCITECETIAYHLARDSNGNLEL [AS131, alternative splicing, USP25] | 10.53 | 0.008 | 299.44 | 0.53 | Yes |
| QIRVPSYSDEG [AS114, alternative splicing, CNTN5] | 2.05 | 0.02 | 7.6 | 0.14 | Yes |
| QLKKMVSKVRLRRARLPGRAHRSLPRPVESVPAQPSKLPRRAGSPGAVLSDLLRTPPRGACRLVRESPYGSWEGGGRRQSTKAWSGGYLTPAAHPPSSLPLSLELSVGQCSFSFVFINTNKGSYLVVDLRQSSTPVPI [AS11] | 69.02 | 0.45 | 4 | 0.033 | Yes |
| QLSVVTRDDYNSSELK [AS87, alternative splicing, BMP6] | 4.45 | 0.016 | 44.64 | 1.25 | Yes |
| QRDRDSIKVGLKIYRLRNGLKGL [AS76, alternative splicing, TLE4] | 224.35 | 0.34 | 6.15 | 0.54 | Yes |
| RHQENVHTVLVHGKVKGLFYI [AS125, alternative splicing, PRDM5] | 6.57 | 0.023 | 28.62 | 0.78 | Yes |
| RPGVFTDIL [FUS53, gene fusion PTPRG-> C3orf14] | 6.29 | 0.041 | 76.5 | 0.78 | Yes |
| RQLQQQLSSLSGPEGVPFLKLWCLDDLLSTLLGTCRCPSRAQF [FUS57, gene fusion MED12-> NLGN3] | 11.65 | 0.24 | 17.2 | 0.14 | Yes |
| RSISLHKSDPSLLSPN [AS25, alternative splicing, TBCEL] | 57.01 | 0.061 | 43.6 | 0.028 | Yes |
| SATTRSITGQDILSLEKERR [AS17, alternative splicing, DCC] | 7.078 | 0.028 | 14.05 | 0.13 | Yes |
| SEMVAHERYVFEATGNDSFRTLCLLMK [AS112, alternative splicing, CFAP54] | 7.92 | 0.012 | 35.03 | 0.062 | Yes |
| SGLLMNTLTVLILYFLY [FUS9, gene fusion EAF2-> SLC15A2] | 3.08 | 0.031 | 5.53 | 0.13 | Yes |
| SLLSLFPGKTVEITCLQHQKC [AS3, alternative splicing, BBS9] | 3.43 | 0.026 | 92.41 | 0.28 | Yes |
| SQKQPALKCLLRNNRP [AS84, alternative splicing, ANKRD36] | 10.66 | 0.019 | 162.14 | 4.54 | Yes |
